# In patent publication US20100144755A1 (Glaxo Group Limited, priority 2006, published 2010):
# Entries after “also recorded” stand apart in the source; their conditions may differ. Counter-ions that a name gives are not always drawn.
# System: influx of neutrophils to the lung in LPS-challenged rats
# Experiment: Rat LPS neutrophilia model
# Format: in vivo
# Details: LPS aerosol, intratracheal dosing, in at least one of the range of conditions tested, significance p<0.05
# Experimental: Rat LPS Neutrophilia Model
# The effect of compounds on the influx of neutrophils to the lung in LPS-challenged rats is evaluated as follows. The test compound is suspended in one of the following solutions: 0.5% tween 80/PBS, 0.5% tween 80/saline, 10% EtOH/saline (with pH adjusted to 2.0, or 8.0 with HCl, or unadjusted), Saline @pH 2.0, 6.5 or 8.0, 0.5% Tragacanth, 1% DMSO/20% Encapsin/Saline, or acidified 5% Tragacanth. The suspension process may be aided by the use of a glass homogenizer. For intratracheal administration, the animals are anesthetized with inhaled isoflurane and placed in a supine position, the trachea is intubated with a steel gavage needle (1.5 inch, 22 gauge, small ball) or a Penn-Century Microsprayer Aerosolizer (model IA-1B) and 200 ul of dosing solution is delivered. The animals are visually monitored during the recovery process, which typically occurs within two minutes. It is noted that the test compounds may be alternatively administered via the microsprayer in a dry powder blend with a suitable excipient, such as lactose.
# Rats treated with compound or vehicle (15 min-24 hours pretreatment) are exposed to an LPS aerosol (100 ug/ml) for 15 min. Four hours later the rats are euthanized with pentobarbital (100 mg/kg, i.p.) and the airways are lavaged with 5 washes of 5 ml of phosphate buffered saline. The harvested cells are stained (Diffquick) and counted to determine total and differential cell data. […] Inhibition of neutrophil levels relative to no compound controls is calculated based on the differential counts.
# The data is obtained as % inhibition using a particular concentration and pretreat time.
row,Compound,inhibition of neutrophilia
1,"CCN(CC)CCCNc1nc(-c2cc(C(=O)N(C)C)ccc2C)c2ccc(=O)n(-c3c(F)cccc3F)c2n1 [Example 120, 3-[2-{[3-(diethylamino)propyl]amino}-8-(2,6-difluorophenyl)-7-oxo-7,8-dihydropyrido[2,3-d]pyrimidin-4-yl]-N,N,4-trimethylbenzamide]",statistically nonsignificant inhibition; also recorded: inactive
2,"Cc1ccc(C(=O)NC2CC2)cc1-c1nc(N2CCC(N)CC2)nc2c1ccc(=O)n2-c1c(F)cccc1F [Example 22, 3-[2-(4-amino-1-piperidinyl)-8-(2,6-difluorophenyl)-7-oxo-7,8-dihydropyrido[2,3-d]pyrimidin-4-yl]-N-cyclopropyl-4-methylbenzamide]",statistically significant inhibition
3,"Cc1ccc(NC(=O)c2cccc3cc[nH]c23)cc1-c1nc(NC(CO)CO)nc2c1ccc(=O)n2-c1c(F)cccc1F [Example 44, N-[3-(8-(2,6-difluorophenyl)-2-{[2-hydroxy-1-(hydroxymethyl)ethyl]amino}-7-oxo-7,8-dihydropyrido[2,3-d]pyrimidin-4-yl)-4-methylphenyl]-1H-indole-7-carboxamide trifluoroacetate]",statistically significant inhibition
4,"CCCNC(=O)c1cc(F)c(C)c(-c2nc(NCCCN(CC)CC)nc3c2ccc(=O)n3-c2c(F)cccc2F)c1 [Example 181, 3-[2-{[3-(diethylamino)propyl]amino}-8-(2,6-difluorophenyl)-7-oxo-7,8-dihydropyrido[2,3-d]pyrimidin-4-yl]-5-fluoro-4-methyl-N-propylbenzamide]",statistically nonsignificant inhibition
5,"CCNC(=O)c1ccc(C)c(-c2nc(N3CCC(N4CCC(C)CC4)CC3)nc3c2ccc(=O)n3-c2c(F)cccc2F)c1 [Example 173, 3-[8-(2,6-difluorophenyl)-2-(4-methyl-1,4′-bipiperidin-1′-yl)-7-oxo-7,8-dihydropyrido[2,3-d]pyrimidin-4-yl]-N-ethyl-4-methylbenzamide]",statistically significant inhibition
6,"Cc1ccc(C(=O)NC2CCC2)cc1-c1nc(N2CCC(N3CCC(C)CC3)CC2)nc2c1ccc(=O)n2-c1c(F)cccc1F [Example 175, N-cyclobutyl-3-[8-(2,6-difluorophenyl)-2-(4-methyl-1,4′-bipiperidin-1′-yl)-7-oxo-7,8-dihydropyrido[2,3-d]pyrimidin-4-yl]-4-methylbenzamide]",inactive
7,"CCN(CC)CCCNc1nc(-c2cc(C(=O)NC3CCCC3)ccc2C)c2ccc(=O)n(-c3c(F)cccc3F)c2n1 [Example 125, N-cyclopentyl-3-[2-{[3-(diethylamino)propyl]amino}-8-(2,6-difluorophenyl)-7-oxo-7,8-dihydropyrido[2,3-d]pyrimidin-4-yl]-4-methylbenzamide]",statistically nonsignificant inhibition
8,"CNCCNc1nc(-c2cc(C(=O)NCCc3ccccc3)ccc2C)c2ccc(=O)n(-c3c(F)cccc3F)c2n1 [Example 29, 3-(8-(2,6-difluorophenyl)-2-{[2-(methylamino)ethyl]amino}-7-oxo-7,8-dihydropyrido[2,3-d]pyrimidin-4-yl)-4-methyl-N-(2-phenylethyl)benzamide]",statistically significant inhibition
9,"Cc1ccc(C(=O)NC(C)C)cc1-c1nc(NCCN(C)C)nc2c1ccc(=O)n2-c1c(F)cccc1F [Example 117, 3-(8-(2,6-difluorophenyl)-2-{[2-(dimethylamino)ethyl]amino}-7-oxo-7,8-dihydropyrido[2,3-d]pyrimidin-4-yl)-4-methyl-N-(1-methylethyl)benzamide]",statistically significant inhibition
10,"CCNC(=O)c1ccc(C)c(-c2nc(NCCCN(CC)CC)nc3c2ccc(=O)n3-c2c(F)cccc2F)c1 [Example 129, 3-[2-{[3-(diethylamino)propyl]amino}-8-(2,6-difluorophenyl)-7-oxo-7,8-dihydropyrido[2,3-d]pyrimidin-4-yl]-N-ethyl-4-methylbenzamide]",statistically nonsignificant inhibition
